#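 Compound exposure: 48 hours, 5 concentrations, 96-well plates. GI50 = concentration required for 50% inhibition of growth.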 Active and inactive are the calls of the source. Rule as the data show it: active = GI50 up to about 1.1 µM and inactive = higher.
# Tests used:
# Experiment in all cases: NCI-60 cell line screen, 48 h
# 786-0 = system: 786-0
# A549 = system: A549
# ACHN = system: ACHN
# CAKI-1 = system: CAKI-1
# CCRF-CEM = system: CCRF-CEM
# COLO 205 = system: COLO 205
# DU-145 = system: DU-145
# EKVX = system: EKVX
# HCT-116 = system: HCT-116
# HCT-15 = system: HCT-15
# HL-60 = system: HL-60
# HOP-62 = system: HOP-62
# HOP-92 = system: HOP-92
# HT-29 = system: HT-29
# Hs-578T = system: Hs-578T
# IGROV-1 = system: IGROV-1
# K562 = system: K562
# KM12 = system: KM12
# LOX IMVI = system: LOX IMVI
# M14 = system: M14
# MCF7 = system: MCF7
# MDA-MB-231 = system: MDA-MB-231
# MDA-MB-435 = system: MDA-MB-435
# MDA-N = system: MDA-N
# MOLT-4 = system: MOLT-4
# Malme-3M = system: Malme-3M
# NCI-H226 = system: NCI-H226
# NCI-H23 = system: NCI-H23
# NCI-H460 = system: NCI-H460
# NCI-H522 = system: NCI-H522
# NCI/ADR-RES = system: NCI/ADR-RES
# OVCAR-3 = system: OVCAR-3
# OVCAR-4 = system: OVCAR-4
# OVCAR-5 = system: OVCAR-5
# OVCAR-8 = system: OVCAR-8
# PC-3 = system: PC-3
# RPMI-8226 = system: RPMI-8226
# RXF 393 = system: RXF 393
# SF-268 = system: SF-268
# SF-295 = system: SF-295
# SF-539 = system: SF-539
# SK-MEL-28 = system: SK-MEL-28
# SK-MEL-2 = system: SK-MEL-2
# SK-MEL-5 = system: SK-MEL-5
# SN12C = system: SN12C
# SNB-19 = system: SNB-19
# SNB-75 = system: SNB-75
# SR = system: SR
# SW-620 = system: SW-620
# T47D = system: T47D
# TK-10 = system: TK-10
# U-251 = system: U-251
# UACC-257 = system: UACC-257
# UACC-62 = system: UACC-62
# UO-31 = system: UO-31
# HCC 2998 = system: HCC 2998
# SK-OV-3 = system: SK-OV-3
# A498 = system: A498
structure (smiles),measurement,setting,value
CN(Cc1cnc2nc(N)nc(N)c2n1)c1ccc(C(=O)NC(CCC(=O)NC(P(=O)(O)O)P(=O)(O)O)C(=O)O)cc1 (stereo not drawn),GI50,786-0,7.31 µM (inactive)
same,GI50,A549,15.3 µM (inactive)
same,GI50,ACHN,49.7 µM (inactive)
same,GI50,CAKI-1,12.4 µM (inactive)
same,GI50,CCRF-CEM,41.1 µM (inactive)
same,GI50,COLO 205,> 100 µM (inactive)
same,GI50,DU-145,45.3 µM (inactive)
same,GI50,EKVX,> 100 µM (inactive)
same,GI50,HCT-116,4.49 µM (inactive)
same,GI50,HCT-15,22.9 µM
same,GI50,HL-60,7.18 µM (inactive)
same,GI50,HOP-62,59.8 µM (inactive)
same,GI50,HOP-92,> 100 µM (inactive)
same,GI50,HT-29,6.47 µM (inactive)
same,GI50,Hs-578T,> 100 µM (inactive)
same,GI50,IGROV-1,36.7 µM (inactive)
same,GI50,K562,4.21 µM (inactive)
same,GI50,KM12,8.34 µM (inactive)
same,GI50,LOX IMVI,8.32 µM (inactive)
same,GI50,M14,8.34 µM (inactive)
same,GI50,MCF7,39.8 µM (inactive)
same,GI50,MDA-MB-231,> 100 µM (inactive)
same,GI50,MDA-MB-435,30 µM (inactive)
same,GI50,MDA-N,16.2 µM (inactive)
same,GI50,MOLT-4,52.8 µM (inactive)
same,GI50,Malme-3M,> 100 µM (inactive)
same,GI50,NCI-H226,> 100 µM (inactive)
same,GI50,NCI-H23,50.8 µM (inactive)
same,GI50,NCI-H460,9.62 µM (inactive)
same,GI50,NCI-H522,29 µM (inactive)
same,GI50,NCI/ADR-RES,40.8 µM (inactive)
same,GI50,OVCAR-3,> 100 µM (inactive)
same,GI50,OVCAR-4,> 100 µM (inactive)
same,GI50,OVCAR-5,45.8 µM (inactive)
same,GI50,OVCAR-8,4.33 µM (inactive)
same,GI50,PC-3,5.62 µM (inactive)
same,GI50,RPMI-8226,52.4 µM (inactive)
same,GI50,RXF 393,4.79 µM (inactive)
same,GI50,SF-268,20.3 µM (inactive)
same,GI50,SF-295,13.1 µM (inactive)
same,GI50,SF-539,32.6 µM (inactive)
same,GI50,SK-MEL-28,83 µM (inactive)
same,GI50,SK-MEL-2,6.07 µM (inactive)
same,GI50,SK-MEL-5,45.5 µM (inactive)
same,GI50,SN12C,55.2 µM (inactive)
same,GI50,SNB-19,9.18 µM (inactive)
same,GI50,SNB-75,> 100 µM (inactive)
same,GI50,SR,9.06 µM (inactive)
same,GI50,SW-620,6.84 µM (inactive)
same,GI50,T47D,26.3 µM (inactive)
same,GI50,TK-10,> 100 µM (inactive)
same,GI50,U-251,6.43 µM (inactive)
same,GI50,UACC-257,99.1 µM (inactive)
same,GI50,UACC-62,> 100 µM (inactive)
same,GI50,UO-31,78.2 µM (inactive)
C1=C(c2ccccc2)O[C@H](COCc2ccccc2)C(OCc2ccccc2)[C@@H]1OCc1ccccc1 (stereo partly drawn),GI50,786-0,> 10 µM (inactive)
same,GI50,A549,> 10 µM (inactive)
same,GI50,CAKI-1,> 10 µM (inactive)
same,GI50,CCRF-CEM,> 10 µM (inactive)
same,GI50,COLO 205,> 10 µM (inactive)
same,GI50,DU-145,> 10 µM (inactive)
same,GI50,EKVX,> 10 µM (inactive)
same,GI50,HCC 2998,> 10 µM (inactive)
same,GI50,HCT-15,> 10 µM
same,GI50,HL-60,> 10 µM (inactive)
same,GI50,HOP-62,> 10 µM (inactive)
same,GI50,HT-29,> 10 µM (inactive)
same,GI50,IGROV-1,> 10 µM (inactive)
same,GI50,K562,> 10 µM (inactive)
same,GI50,KM12,> 10 µM (inactive)
same,GI50,M14,> 10 µM (inactive)
same,GI50,MCF7,> 10 µM (inactive)
same,GI50,MDA-MB-231,> 10 µM (inactive)
same,GI50,MDA-N,> 10 µM (inactive)
same,GI50,MOLT-4,> 10 µM (inactive)
same,GI50,Malme-3M,> 10 µM (inactive)
same,GI50,NCI-H23,> 10 µM (inactive)
same,GI50,OVCAR-8,> 10 µM (inactive)
same,GI50,PC-3,> 10 µM (inactive)
same,GI50,RPMI-8226,> 10 µM (inactive)
same,GI50,RXF 393,> 10 µM (inactive)
same,GI50,SF-268,> 10 µM (inactive)
same,GI50,SF-295,> 10 µM (inactive)
same,GI50,SK-MEL-28,> 10 µM (inactive)
same,GI50,SK-MEL-5,> 10 µM (inactive)
same,GI50,SK-OV-3,> 10 µM (inactive)
same,GI50,SN12C,> 10 µM (inactive)
same,GI50,SNB-75,> 10 µM (inactive)
same,GI50,SR,> 10 µM (inactive)
same,GI50,SW-620,> 10 µM (inactive)
same,GI50,T47D,> 10 µM (inactive)
same,GI50,TK-10,> 10 µM (inactive)
same,GI50,UACC-257,> 10 µM (inactive)
same,GI50,UACC-62,> 10 µM (inactive)
Oc1cc(-c2ccccc2)nc2ncccc12,GI50,786-0,0.16 µM (active)
same,GI50,A498,> 100 µM (inactive)
same,GI50,A549,0.385 µM (active)
same,GI50,ACHN,0.446 µM (active)
same,GI50,CAKI-1,0.0792 µM (active)
same,GI50,CCRF-CEM,0.0867 µM (active)
same,GI50,COLO 205,0.0855 µM (active)
same,GI50,DU-145,0.298 µM (active)
same,GI50,EKVX,> 100 µM (inactive)
same,GI50,HCC 2998,0.232 µM (active)
same,GI50,HCT-116,0.0719 µM (active)
same,GI50,HCT-15,0.0227 µM
same,GI50,HL-60,0.0471 µM (active)
same,GI50,HOP-62,1.15 µM (inactive)
same,GI50,HOP-92,0.127 µM (active)
same,GI50,HT-29,0.0646 µM (active)
same,GI50,Hs-578T,0.16 µM (active)
same,GI50,IGROV-1,0.2 µM (active)
same,GI50,K562,0.0336 µM (active)
same,GI50,KM12,0.0296 µM (active)
same,GI50,LOX IMVI,0.0552 µM (active)
same,GI50,M14,0.0853 µM (active)
same,GI50,MCF7,0.0372 µM (active)
same,GI50,MDA-MB-231,0.418 µM (active)
same,GI50,MDA-MB-435,0.0133 µM (active)
same,GI50,MDA-N,0.0129 µM (active)
same,GI50,MOLT-4,0.0962 µM (active)
same,GI50,Malme-3M,0.091 µM (active)
same,GI50,NCI-H226,0.502 µM (active)
same,GI50,NCI-H23,0.203 µM (active)
same,GI50,NCI-H460,0.12 µM (active)
same,GI50,NCI-H522,0.0525 µM (active)
same,GI50,NCI/ADR-RES,0.0655 µM (active)
same,GI50,OVCAR-3,0.145 µM (active)
same,GI50,OVCAR-4,15 µM (inactive)
same,GI50,OVCAR-8,0.22 µM (active)
same,GI50,PC-3,0.0681 µM (active)
same,GI50,RPMI-8226,0.171 µM (active)
same,GI50,RXF 393,0.106 µM (active)
same,GI50,SF-268,1.93 µM (inactive)
same,GI50,SF-295,0.0698 µM (active)
same,GI50,SF-539,0.109 µM (active)
same,GI50,SK-MEL-28,0.0743 µM (active)
same,GI50,SK-MEL-2,0.0303 µM (active)
same,GI50,SK-MEL-5,0.0778 µM (active)
same,GI50,SK-OV-3,0.126 µM (active)
same,GI50,SN12C,0.268 µM (active)
same,GI50,SNB-19,0.222 µM (active)
same,GI50,SNB-75,0.0975 µM (active)
same,GI50,SW-620,0.0438 µM (active)
same,GI50,T47D,> 100 µM (inactive)
same,GI50,TK-10,0.206 µM (active)
same,GI50,U-251,0.0927 µM (active)
same,GI50,UACC-257,0.203 µM (active)
same,GI50,UACC-62,0.0396 µM (active)
same,GI50,UO-31,0.272 µM (active)
FC(F)(F)c1cccc(-c2nc3ccccc3c3c2[C@@]2(N4CCCC4)CCCC[C@@H]32)c1,GI50,786-0,38.4 µM (inactive)
same,GI50,A498,31.2 µM (inactive)
same,GI50,A549,31.7 µM (inactive)
same,GI50,CAKI-1,50.9 µM (inactive)
same,GI50,CCRF-CEM,29.6 µM (inactive)
same,GI50,COLO 205,15.5 µM (inactive)
same,GI50,DU-145,51.5 µM (inactive)
same,GI50,EKVX,28.7 µM (inactive)
same,GI50,HCT-116,35.6 µM (inactive)
same,GI50,HL-60,25.8 µM (inactive)
same,GI50,HOP-62,32.3 µM (inactive)
same,GI50,HOP-92,13.2 µM (inactive)
same,GI50,HT-29,29.1 µM (inactive)
same,GI50,Hs-578T,43.6 µM (inactive)
same,GI50,IGROV-1,12 µM (inactive)
same,GI50,K562,30.8 µM (inactive)
same,GI50,KM12,35.6 µM (inactive)
same,GI50,LOX IMVI,18.1 µM (inactive)
same,GI50,M14,66.2 µM (inactive)
same,GI50,MCF7,20 µM (inactive)
same,GI50,MDA-MB-231,18.5 µM (inactive)
same,GI50,MDA-MB-435,23.6 µM (inactive)
same,GI50,MDA-N,32.2 µM (inactive)
same,GI50,MOLT-4,28.1 µM (inactive)
same,GI50,Malme-3M,32.9 µM (inactive)
same,GI50,NCI-H226,51.2 µM (inactive)
same,GI50,NCI-H23,32.4 µM (inactive)
same,GI50,NCI-H460,28.1 µM (inactive)
same,GI50,NCI-H522,13.3 µM (inactive)
same,GI50,NCI/ADR-RES,> 100 µM (inactive)
same,GI50,OVCAR-3,38.9 µM (inactive)
same,GI50,OVCAR-4,35.3 µM (inactive)
same,GI50,OVCAR-5,34.4 µM (inactive)
same,GI50,PC-3,37 µM (inactive)
same,GI50,RPMI-8226,17.5 µM (inactive)
same,GI50,RXF 393,38.1 µM (inactive)
same,GI50,SF-268,33.3 µM (inactive)
same,GI50,SF-295,26.2 µM (inactive)
same,GI50,SF-539,37.1 µM (inactive)
same,GI50,SK-MEL-2,17.8 µM (inactive)
same,GI50,SK-MEL-5,15.8 µM (inactive)
same,GI50,SK-OV-3,36.9 µM (inactive)
same,GI50,SN12C,40.4 µM (inactive)
same,GI50,SNB-19,50.9 µM (inactive)
same,GI50,SNB-75,30.1 µM (inactive)
same,GI50,SR,40.9 µM (inactive)
same,GI50,SW-620,36.2 µM (inactive)
same,GI50,T47D,76 µM (inactive)
same,GI50,TK-10,30.3 µM (inactive)
same,GI50,U-251,23.1 µM (inactive)
same,GI50,UACC-257,44.9 µM (inactive)
same,GI50,UACC-62,23.5 µM (inactive)
same,GI50,UO-31,18 µM (inactive)

# From ChEMBL document CHEMBL1201862, “PubChem BioAssay data set” (2004)
